Data as given in patent publication US20250223260A1, “Substituted Pyrrolidinyl And Piperidinyl Compounds And Related Methods Of Treatment” (Alkermes, Inc., priority 2022, published 2025).

The compounds below were run against T1, human orexin-2 receptor (OX2R) (Homo sapiens, UniProt O43614) (assay: Human OX2R IP1 assay). Conditions: T-Rex CHO cells stably overexpressing human OX2R; IP1 accumulation (HTRF); 1 hr at 37 degrees C.
T1 construct: expressed in transfected cells
T1 sequence (O43614 1-444): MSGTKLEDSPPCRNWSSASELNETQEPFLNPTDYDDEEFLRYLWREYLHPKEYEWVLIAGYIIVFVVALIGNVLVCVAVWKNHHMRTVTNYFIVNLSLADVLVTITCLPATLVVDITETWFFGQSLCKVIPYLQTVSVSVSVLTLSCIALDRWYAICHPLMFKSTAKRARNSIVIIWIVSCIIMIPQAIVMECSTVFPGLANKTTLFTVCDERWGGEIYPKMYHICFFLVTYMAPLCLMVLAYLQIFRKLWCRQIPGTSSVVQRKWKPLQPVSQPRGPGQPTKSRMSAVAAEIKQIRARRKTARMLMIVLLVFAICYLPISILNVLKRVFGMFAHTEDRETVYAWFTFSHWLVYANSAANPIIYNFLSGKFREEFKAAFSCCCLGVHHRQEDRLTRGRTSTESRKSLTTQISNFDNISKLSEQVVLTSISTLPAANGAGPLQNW
Type: cell-based
Procedure: T-Rex CHO cells stably overexpressing the human orexin-2 receptor (OX2R) are induced overnight with 1 μg/mL of doxycycline in a T225 flask. 24 hours post induction, cells are lifted with accutase and plated into a 384-well proxy plate at 30,000 cells/well. Cells are then treated with different test compounds in 1× stimulation buffer containing 10 mM Hepes, 1 mM CaCl2, 0.5 mM MgCl2, 4.2 mM KCl, 146 mM NaCl, 5.5 mM glucose, and 50 mM LiCl, pH 7.4, for 1 hr at 37 degrees C. Following incubation, the reaction is terminated by the addition of detection mix, which is composed of IP1-d2 and anti-IP1-cryptate diluted in lysis buffer as well as 1× stimulation buffer. The plates are allowed to incubate for 1 hour at room temperature and are then read in the EnVision® multimode plate reader, measuring inositol phosphate levels.
Cisbio IP1 is a cell-based functional assay quantifying the accumulation of inositol monophosphate (IP), a metabolite released as a result of orexin 2 receptor activation through the phospholipase C-Gq signaling pathway. This is a competitive immunoassay in which the IP1 produced by the cells upon receptor activation competes with the IP1 analog coupled to the d2 fluorophore (acceptor) for binding to an anti-IP1 monoclonal antibody labeled with Eu cryptate (donor). The measured HTRF-FRET based signal is inversely proportional to the IP1 concentration produced.
The EC50 values reported in Table 2 were obtained according to the human OX2R IP1 assay described above. Data are the mean EC50 values ±S.E.M.

| Structure (SMILES) | EC50 [µM] |
| --- | --- |
| COC(=O)N1CC[C@@H](NS(C)(=O)=O)[C@@H](OC[C@H]2CC[C@@H](c3ccccc3)CC2)C1 (single isomer, unassigned) [Compound 41] | > 10 |
| CS(=O)(=O)N[C@@H]1CCN(C(=O)C2(O)CCC2)C[C@@H]1OCC1CCC(c2ccccc2)CC1 (single isomer, unassigned) [Compound 44] | > 10 |
| CC1(C(=O)N2CC[C@@H](NS(C)(=O)=O)[C@@H](OCC3CCC(c4ccccc4)CC3)C2)COC1 (single isomer, unassigned) [Compound 46] | > 10 |
| Cn1ccc(N2CC[C@@H](NS(C)(=O)=O)[C@@H](OC[C@H]3CC[C@@H](c4ccccc4)CC3)C2)n1 (single isomer, unassigned) [Compound 48] | > 10 |
| CS(=O)(=O)N[C@H]1CCN(C2COC2)C[C@H]1OC[C@H]1CC[C@@H](c2ccccc2)CC1 (single isomer, unassigned) [Compound 51] | > 10 |
| CS(=O)(=O)N[C@@H]1CCN(C2COC2)C[C@@H]1OC[C@H]1CC[C@@H](c2ccccc2)CC1 (single isomer, unassigned) [Compound 52] | > 10 |
| Cn1ccnc1N1CC[C@H](NS(C)(=O)=O)[C@H](OCC2CCC(c3ccccc3)CC2)C1 (single isomer, unassigned) [Compound 53] | > 10 |
| CS(=O)(=O)N[C@H]1CCN(CC2COC2)C[C@H]1OC[C@H]1CC[C@@H](c2ccccc2)CC1 (single isomer, unassigned) [Compound 57] | > 10 |
| CS(=O)(=O)N[C@@H]1CCN(CC2COC2)C[C@@H]1OC[C@H]1CC[C@@H](c2ccccc2)CC1 (single isomer, unassigned) [Compound 58] | > 10 |
| Cn1cnc(N2CC[C@H](NS(C)(=O)=O)[C@H](OCC3CCC(c4ccccc4)CC3)C2)c1 (single isomer, unassigned) [Compound 59] | 0.1 to 10 |
| Cn1cnc(N2CC[C@@H](NS(C)(=O)=O)[C@@H](OC[C@H]3CC[C@@H](c4ccccc4)CC3)C2)c1 (single isomer, unassigned) [Compound 60] | > 10 |
| C[C@@H](C1COC1)N1CC[C@H](NS(C)(=O)=O)[C@H](OCC2CCC(c3ccccc3)CC2)C1 (single isomer, unassigned) [Compound 61] | > 10 |
| C[C@@H](C1COC1)N1CC[C@@H](NS(C)(=O)=O)[C@@H](OCC2CCC(c3ccccc3)CC2)C1 (single isomer, unassigned) [Compound 62] | > 10 |
| C[C@H](C1COC1)N1CC[C@H](NS(C)(=O)=O)[C@H](OCC2CCC(c3ccccc3)CC2)C1 (single isomer, unassigned) [Compound 63] | > 10 |
| C[C@H](C1COC1)N1CC[C@@H](NS(C)(=O)=O)[C@@H](OCC2CCC(c3ccccc3)CC2)C1 (single isomer, unassigned) [Compound 64] | > 10 |
| CS(=O)(=O)N[C@@H]1CCN(C(=O)C2CCC2)C[C@@H]1OCC1CCC(c2ccccc2)CC1 (single isomer, unassigned) [Compound 66] | 0.1 to 10 |
| CS(=O)(=O)N[C@@H]1CCN(C(=O)C2(F)CC2)C[C@@H]1OCC1CCC(c2ccccc2)CC1 (single isomer, unassigned) [Compound 68] | 0.1 to 10 |
| CS(=O)(=O)N[C@H]1CCN(CC2(F)CCC2)C[C@H]1OCC1CCC(c2ccccc2)CC1 (single isomer, unassigned) [Compound 69] | 0.1 to 10 |
| CS(=O)(=O)N[C@@H]1CCN(CC2(F)CCC2)C[C@@H]1OCC1CCC(c2ccccc2)CC1 (single isomer, unassigned) [Compound 70] | > 10 |
| COC1(C(=O)N2CC[C@H](NS(C)(=O)=O)[C@H](OC[C@H]3CC[C@@H](c4ccccc4)CC3)C2)CCC1 [Compound 42] | 0.1 to 10 |

Second part, the compound after the results:

| EC50 [µM] | Structure (SMILES) |
| --- | --- |
| 0.1 to 10 | CS(=O)(=O)N[C@@H]1CCN(C(=O)C2CC2)C[C@@H]1OC[C@H]1CC[C@@H](c2ccccc2)CC1 (single isomer, unassigned) [Compound 37, N-[cis-1-cyclopropanecarbonyl-3-[(cis-4-phenylcyclohexyl)methoxy]piperidin-4-yl]methanesulfonamide] |
| 0.1 to 10 | CC(C)(O)C(=O)N1CC[C@@H](NS(C)(=O)=O)[C@@H](OC[C@H]2CC[C@@H](c3ccccc3)CC2)C1 (single isomer, unassigned) [Compound 38] |
| 0.1 to 10 | CS(=O)(=O)N[C@H]1CCN(c2ncco2)C[C@H]1OC[C@H]1CC[C@@H](c2ccccc2)CC1 (single isomer, unassigned) [Compound 39, N-(cis-1-(oxazol-2-yl)-3-((cis-4-phenylcyclohexyl)methoxy)piperidin-4-yl)methanesulfonamide] |
| 0.1 to 10 | COC(=O)N1CC[C@H](NS(C)(=O)=O)[C@H](OC[C@H]2CC[C@@H](c3ccccc3)CC2)C1 (single isomer, unassigned) [Compound 40] |
| < 0.1 | CS(=O)(=O)N[C@@H]1CCN(C(=O)C2(O)CCC2)C[C@@H]1OC[C@H]1CC[C@@H](c2ccccc2)CC1 (single isomer, unassigned) [Compound 43] |
| 0.1 to 10 | CC1(C(=O)N2CC[C@H](NS(C)(=O)=O)[C@H](OCC3CCC(c4ccccc4)CC3)C2)COC1 (single isomer, unassigned) [Compound 45] |
| 0.1 to 10 | Cn1ccc(N2CC[C@H](NS(C)(=O)=O)[C@H](OC[C@H]3CC[C@@H](c4ccccc4)CC3)C2)n1 (single isomer, unassigned) [Compound 47] |
| < 0.1 | CS(=O)(=O)N[C@H]1CCN(C(=O)C2(F)CCC2)C[C@H]1OCC1CCC(c2ccccc2)CC1 (single isomer, unassigned) [Compound 49] |
| 0.1 to 10 | CS(=O)(=O)N[C@@H]1CCN(C(=O)C2(F)CCC2)C[C@@H]1OCC1CCC(c2ccccc2)CC1 (single isomer, unassigned) [Compound 50] |
| 0.1 to 10 | Cn1ccnc1N1CC[C@@H](NS(C)(=O)=O)[C@@H](OC[C@H]2CC[C@@H](c3ccccc3)CC2)C1 (single isomer, unassigned) [Compound 54] |
| < 0.1 | CS(=O)(=O)N[C@H]1CCN(c2cccnn2)C[C@H]1OC[C@H]1CC[C@@H](c2ccccc2)CC1 (single isomer, unassigned) [Compound 55] |
| 0.1 to 10 | CS(=O)(=O)N[C@@H]1CCN(c2cccnn2)C[C@@H]1OC[C@H]1CC[C@@H](c2ccccc2)CC1 (single isomer, unassigned) [Compound 56] |
| < 0.1 | CS(=O)(=O)N[C@H]1CCN(C(=O)C2CCC2)C[C@H]1OCC1CCC(c2ccccc2)CC1 (single isomer, unassigned) [Compound 65] |
| < 0.1 | CS(=O)(=O)N[C@@H]1CCN(C(=O)C2(F)CC2)C[C@@H]1OC[C@H]1CC[C@@H](c2ccccc2)CC1 (single isomer, unassigned) [Compound 67] |
